Source: the supplement of paper PMC10307832

Experiments:
Assay in all cases: relative viability (nuclei count vs DMSO), 5 days (fraction); higher = more cells survive
Bexarotene = compound: C=C(c1ccc(C(=O)O)cc1)c1cc2c(cc1C)C(C)(C)CCC2(C)C [Bexarotene]
Procedure, shortened: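 Viability was read as treated-well nuclei divided by vehicle-well nuclei, using the median across plates. Lung cancer cell lines in 1536-well plates were kept overnight at 37 °C, pinned with five √10-spaced library-drug doses, and after 5 days were Hoechst-stained, imaged at 4× and counted in MetaXpress. Plates passed only with control CV below 25% and at least one doubling.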

Bexarotene + Tozasertib = compound: C=C(c1ccc(C(=O)O)cc1)c1cc2c(cc1C)C(C)(C)CCC2(C)C [Bexarotene] + Cc1cc(Nc2cc(N3CCN(C)CC3)nc(Sc3ccc(NC(=O)C4CC4)cc3)n2)n[nH]1 [Tozasertib] (partner 0.1 µM)
Procedure, shortened: (§1)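 Nuclei were stained with Hoechst during a one-step fixation (final 0.05% Triton X-100, 1% formaldehyde, 1 ug/ml Hoechst) carried out 5 days after dosing, then counted on 4× images. The cells, lung cancer lines in 1536-well plates, had been dosed by pin tool the day after seeding with one drug alone or a fixed anchor-drug dose plus five library-drug doses (not always all listed) in √10 steps. Relative viability is the nuclei count in treated wells divided by that in vehicle wells, and each value is the median of duplicate plates.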

Bexarotene + Foretinib = compound: C=C(c1ccc(C(=O)O)cc1)c1cc2c(cc1C)C(C)(C)CCC2(C)C [Bexarotene] + COc1cc2c(Oc3ccc(NC(=O)C4(C(=O)Nc5ccc(F)cc5)CC4)cc3F)ccnc2cc1OCCCN1CCOCC1 [Foretinib] (partner 0.25 µM)
Procedure, shortened: as §1

Bexarotene + Pemetrexed = compound: C=C(c1ccc(C(=O)O)cc1)c1cc2c(cc1C)C(C)(C)CCC2(C)C [Bexarotene] + Nc1nc2[nH]cc(CCc3ccc(C(=O)N[C@@H](CCC(=O)O)C(=O)O)cc3)c2c(=O)[nH]1 [Pemetrexed] (partner 0.2 µM)
Procedure, shortened: as §1

Bexarotene + Palbociclib = compound: C=C(c1ccc(C(=O)O)cc1)c1cc2c(cc1C)C(C)(C)CCC2(C)C [Bexarotene] + CC(=O)c1c(C)c2cnc(Nc3ccc(N4CCNCC4)cn3)nc2n(C2CCCC2)c1=O [Palbociclib] (partner 0.5 µM)
Procedure, shortened: as §1

Bexarotene + Dasatinib = compound: C=C(c1ccc(C(=O)O)cc1)c1cc2c(cc1C)C(C)(C)CCC2(C)C [Bexarotene] + Cc1nc(Nc2ncc(C(=O)Nc3c(C)cccc3Cl)s2)cc(N2CCN(CCO)CC2)n1 [Dasatinib] (partner 0.075 µM)
Procedure, shortened: as §1

Bexarotene + Olaparib = compound: C=C(c1ccc(C(=O)O)cc1)c1cc2c(cc1C)C(C)(C)CCC2(C)C [Bexarotene] + O=C(c1cc(Cc2n[nH]c(=O)c3ccccc23)ccc1F)N1CCN(C(=O)C2CC2)CC1 [Olaparib] (partner 8 µM)
Procedure, shortened: as §1

Bexarotene + Luminespib = compound: C=C(c1ccc(C(=O)O)cc1)c1cc2c(cc1C)C(C)(C)CCC2(C)C [Bexarotene] + CCNC(=O)c1noc(-c2cc(C(C)C)c(O)cc2O)c1-c1ccc(CN2CCOCC2)cc1 [Luminespib] (partner 0.01 µM)
Procedure, shortened: as §1

Bexarotene + Decitabine = compound: C=C(c1ccc(C(=O)O)cc1)c1cc2c(cc1C)C(C)(C)CCC2(C)C [Bexarotene] + Nc1ncn([C@H]2C[C@H](O)[C@@H](CO)O2)c(=O)n1 [Decitabine] (partner 2 µM)
Procedure, shortened: as §1

Bexarotene + OSI-027 = compound: C=C(c1ccc(C(=O)O)cc1)c1cc2c(cc1C)C(C)(C)CCC2(C)C [Bexarotene] + COc1cccc2cc(-c3nc([C@H]4CC[C@H](C(=O)O)CC4)n4ncnc(N)c34)[nH]c12 [OSI-027] (partner 0.5 µM)
Procedure, shortened: as §1

Bexarotene + Phenformin = compound: C=C(c1ccc(C(=O)O)cc1)c1cc2c(cc1C)C(C)(C)CCC2(C)C [Bexarotene] + N=C(N)NC(=N)NCCc1ccccc1 [Phenformin] (partner 250 µM)
Procedure, shortened: as §1

Bexarotene + AZD7762 = compound: C=C(c1ccc(C(=O)O)cc1)c1cc2c(cc1C)C(C)(C)CCC2(C)C [Bexarotene] + NC(=O)Nc1cc(-c2cccc(F)c2)sc1C(=O)N[C@H]1CCCNC1 [AZD7762] (partner 0.2 µM)
Procedure, shortened: as §1

Bexarotene + Vorinostat = compound: C=C(c1ccc(C(=O)O)cc1)c1cc2c(cc1C)C(C)(C)CCC2(C)C [Bexarotene] + O=C(CCCCCCC(=O)Nc1ccccc1)NO [Vorinostat] (partner 1 µM)
Procedure, shortened: as §1

Bexarotene + Trametinib = compound: C=C(c1ccc(C(=O)O)cc1)c1cc2c(cc1C)C(C)(C)CCC2(C)C [Bexarotene] + CC(=O)Nc1cccc(-n2c(=O)n(C3CC3)c(=O)c3c(Nc4ccc(I)cc4F)n(C)c(=O)c(C)c32)c1 [Trametinib] (partner 0.02 µM)
Procedure, shortened: as §1

NCI-H2342
relative viability (Bexarotene; 0.08 µM): 1.01 | relative viability (Bexarotene; 0.253 µM): 0.797 | relative viability (Bexarotene; 0.8 µM): 0.965 | relative viability (Bexarotene; 2.53 µM): 1.04 | relative viability (Bexarotene; 8 µM): 1.06 | relative viability (Bexarotene + Tozasertib; first compound 0.08 µM): 0.552 | relative viability (Bexarotene + Tozasertib; first compound 0.253 µM): 0.57 | relative viability (Bexarotene + Tozasertib; first compound 0.8 µM): 0.429 | relative viability (Bexarotene + Tozasertib; first compound 2.53 µM): 0.473 | relative viability (Bexarotene + Tozasertib; first compound 8 µM): 0.512 | relative viability (Bexarotene + Foretinib; first compound 0.08 µM): 1.01 | relative viability (Bexarotene + Foretinib; first compound 0.253 µM): 1.02 | relative viability (Bexarotene + Foretinib; first compound 0.8 µM): 1.09 | relative viability (Bexarotene + Foretinib; first compound 2.53 µM): 1.12 | relative viability (Bexarotene + Foretinib; first compound 8 µM): 1.05 | relative viability (Bexarotene + Pemetrexed; first compound 0.08 µM): 0.827 | relative viability (Bexarotene + Pemetrexed; first compound 0.253 µM): 0.739 | relative viability (Bexarotene + Pemetrexed; first compound 0.8 µM): 0.747 | relative viability (Bexarotene + Pemetrexed; first compound 2.53 µM): 0.825 | relative viability (Bexarotene + Pemetrexed; first compound 8 µM): 0.797 | relative viability (Bexarotene + Palbociclib; first compound 0.08 µM): 0.522 | relative viability (Bexarotene + Palbociclib; first compound 0.253 µM): 0.556 | relative viability (Bexarotene + Palbociclib; first compound 0.8 µM): 0.525 | relative viability (Bexarotene + Palbociclib; first compound 2.53 µM): 0.54 | relative viability (Bexarotene + Palbociclib; first compound 8 µM): 0.608 | relative viability (Bexarotene + Dasatinib; first compound 0.08 µM): 0.331 | relative viability (Bexarotene + Dasatinib; first compound 0.253 µM): 0.301 | relative viability (Bexarotene + Dasatinib; first compound 0.8 µM): 0.256 | relative viability (Bexarotene + Dasatinib; first compound 2.53 µM): 0.33 | relative viability (Bexarotene + Dasatinib; first compound 8 µM): 0.419 | relative viability (Bexarotene + Olaparib; first compound 0.08 µM): 0.425 | relative viability (Bexarotene + Olaparib; first compound 0.253 µM): 0.52 | relative viability (Bexarotene + Olaparib; first compound 0.8 µM): 0.481 | relative viability (Bexarotene + Olaparib; first compound 2.53 µM): 0.407 | relative viability (Bexarotene + Olaparib; first compound 8 µM): 0.583 | relative viability (Bexarotene + Luminespib; first compound 0.08 µM): 0.709 | relative viability (Bexarotene + Luminespib; first compound 0.253 µM): 0.675 | relative viability (Bexarotene + Luminespib; first compound 0.8 µM): 0.747 | relative viability (Bexarotene + Luminespib; first compound 2.53 µM): 0.873 | relative viability (Bexarotene + Luminespib; first compound 8 µM): 0.661 | relative viability (Bexarotene + Decitabine; first compound 0.08 µM): 0.815 | relative viability (Bexarotene + Decitabine; first compound 0.253 µM): 0.736 | relative viability (Bexarotene + Decitabine; first compound 0.8 µM): 0.76 | relative viability (Bexarotene + Decitabine; first compound 2.53 µM): 0.807 | relative viability (Bexarotene + Decitabine; first compound 8 µM): 0.728 | relative viability (Bexarotene + OSI-027; first compound 0.08 µM): 0.612 | relative viability (Bexarotene + OSI-027; first compound 0.253 µM): 0.6 | relative viability (Bexarotene + OSI-027; first compound 0.8 µM): 0.553 | relative viability (Bexarotene + OSI-027; first compound 2.53 µM): 0.686 | relative viability (Bexarotene + OSI-027; first compound 8 µM): 0.707 | relative viability (Bexarotene + Phenformin; first compound 0.08 µM): 0.62 | relative viability (Bexarotene + Phenformin; first compound 0.253 µM): 0.544 | relative viability (Bexarotene + Phenformin; first compound 0.8 µM): 0.605 | relative viability (Bexarotene + Phenformin; first compound 2.53 µM): 0.647 | relative viability (Bexarotene + Phenformin; first compound 8 µM): 0.72 | relative viability (Bexarotene + AZD7762; first compound 0.08 µM): 0.545 | relative viability (Bexarotene + AZD7762; first compound 0.253 µM): 0.5 | relative viability (Bexarotene + AZD7762; first compound 0.8 µM): 0.494 | relative viability (Bexarotene + AZD7762; first compound 2.53 µM): 0.488 | relative viability (Bexarotene + AZD7762; first compound 8 µM): 0.718 | relative viability (Bexarotene + Vorinostat; first compound 0.08 µM): 0.758 | relative viability (Bexarotene + Vorinostat; first compound 0.253 µM): 0.647 | relative viability (Bexarotene + Vorinostat; first compound 0.8 µM): 0.666 | relative viability (Bexarotene + Vorinostat; first compound 2.53 µM): 0.571 | relative viability (Bexarotene + Vorinostat; first compound 8 µM): 0.731 | relative viability (Bexarotene + Trametinib; first compound 0.08 µM): 0.927 | relative viability (Bexarotene + Trametinib; first compound 0.253 µM): 0.767 | relative viability (Bexarotene + Trametinib; first compound 0.8 µM): 0.794 | relative viability (Bexarotene + Trametinib; first compound 2.53 µM): 0.825 | relative viability (Bexarotene + Trametinib; first compound 8 µM): 0.745

NCI-H1623
relative viability (Bexarotene; 0.08 µM): 0.751 | relative viability (Bexarotene; 0.253 µM): 0.849 | relative viability (Bexarotene; 0.8 µM): 0.815 | relative viability (Bexarotene; 2.53 µM): 0.854 | relative viability (Bexarotene; 8 µM): 0.806 | relative viability (Bexarotene + Tozasertib; first compound 0.08 µM): 0.452 | relative viability (Bexarotene + Tozasertib; first compound 0.253 µM): 0.431 | relative viability (Bexarotene + Tozasertib; first compound 0.8 µM): 0.333 | relative viability (Bexarotene + Tozasertib; first compound 2.53 µM): 0.424 | relative viability (Bexarotene + Tozasertib; first compound 8 µM): 0.416 | relative viability (Bexarotene + Foretinib; first compound 0.08 µM): 0.836 | relative viability (Bexarotene + Foretinib; first compound 0.253 µM): 0.813 | relative viability (Bexarotene + Foretinib; first compound 0.8 µM): 0.805 | relative viability (Bexarotene + Foretinib; first compound 2.53 µM): 0.848 | relative viability (Bexarotene + Foretinib; first compound 8 µM): 0.773 | relative viability (Bexarotene + Dasatinib; first compound 0.08 µM): 0.587 | relative viability (Bexarotene + Dasatinib; first compound 0.253 µM): 0.501 | relative viability (Bexarotene + Dasatinib; first compound 0.8 µM): 0.568 | relative viability (Bexarotene + Dasatinib; first compound 2.53 µM): 0.579 | relative viability (Bexarotene + Dasatinib; first compound 8 µM): 0.531 | relative viability (Bexarotene + Luminespib; first compound 0.08 µM): 0.459 | relative viability (Bexarotene + Luminespib; first compound 0.253 µM): 0.476 | relative viability (Bexarotene + Luminespib; first compound 0.8 µM): 0.481 | relative viability (Bexarotene + Luminespib; first compound 2.53 µM): 0.441 | relative viability (Bexarotene + Luminespib; first compound 8 µM): 0.543 | relative viability (Bexarotene + OSI-027; first compound 0.08 µM): 0.439 | relative viability (Bexarotene + OSI-027; first compound 0.253 µM): 0.441 | relative viability (Bexarotene + OSI-027; first compound 0.8 µM): 0.363 | relative viability (Bexarotene + OSI-027; first compound 2.53 µM): 0.407 | relative viability (Bexarotene + OSI-027; first compound 8 µM): 0.334 | relative viability (Bexarotene + Phenformin; first compound 0.08 µM): 0.661 | relative viability (Bexarotene + Phenformin; first compound 0.253 µM): 0.598 | relative viability (Bexarotene + Phenformin; first compound 0.8 µM): 0.528 | relative viability (Bexarotene + Phenformin; first compound 2.53 µM): 0.612 | relative viability (Bexarotene + Phenformin; first compound 8 µM): 0.504
